Experimental data reported in the supplement of paper PMC8671470.

tested on: K-562; assay: cell viability (% survival relative to DMSO control, bortezomib = 0%); higher = less cytotoxic; conditions: 1 nM; 72 h
Method in brief: (§1)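 Percent survival figures are means of duplicate wells. They were obtained by CellTiter-Glo luminescence after 10 AML and 5 CML cell lines spent 72 h at 37 °C with 5% CO2 in 384-well plates with compounds at 1, 10, 100, 1000 or 10000 nM. Vehicle was set to 100% and a 10 µM positive control to 0%.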

Point of comparison: `NC(=O)c1cccc(-c2cccc(OC(=O)NC3CCCCC3)c2)c1` [URB-597], cell viability 102%. Against it:
- O=C1O[C@H]([C@@H](O)CO)C(O)=C1O [Vitamin C (ascorbate)] — lower, 99.2%

same assay, conditions: 10 nM; 72 h

Point of comparison: `O=C(NCCCCCCNC(=O)ONC1=CCCCC1)ONC1=CCCCC1`, cell viability 120%. Against it:
- O=C(O)C[C@@]1(O)C[C@@H](CCCCCCc2ccc(Cl)cc2Cl)OC1=O — lower, 93.6%
- O=C(C1CC1)N1CC[C@@H](C=C2NNC(=O)N2c2ccc(-c3ccc4occc4c3)cc2)C1 — lower, 78.1%
- CCCCCCCCCCCC(=O)c1c(O)c(C(=O)CCCCCCCCCCC)c(O)c(C2CC(c3ccc(O)cc3)Oc3cc(O)ccc32)c1O (stereo not given) — lower, 91.5%
- NC(=O)c1cccc(-c2cccc(OC(=O)NC3CCCCC3)c2)c1 [URB-597] — lower, 98%
- O=C1O[C@H]([C@@H](O)CO)C(O)=C1O [Vitamin C (ascorbate)] — lower, 96.3%

same assay, conditions: 100 nM; 72 h

Point of comparison: `O=C(O)C[C@@]1(O)C[C@@H](CCCCCCc2ccc(Cl)cc2Cl)OC1=O`, cell viability 105%. Against it:
- O=C(NCCCCCCNC(=O)ONC1=CCCCC1)ONC1=CCCCC1 — higher, 116%
- O=C(C1CC1)N1CC[C@@H](C=C2NNC(=O)N2c2ccc(-c3ccc4occc4c3)cc2)C1 — lower, 73%
- CCCCCCCCCCCC(=O)c1c(O)c(C(=O)CCCCCCCCCCC)c(O)c(C2CC(c3ccc(O)cc3)Oc3cc(O)ccc32)c1O (stereo not given) — lower, 99.4%
- NC(=O)c1cccc(-c2cccc(OC(=O)NC3CCCCC3)c2)c1 [URB-597] — lower, 100%
- O=C1O[C@H]([C@@H](O)CO)C(O)=C1O [Vitamin C (ascorbate)] — lower, 92.8%

same assay, conditions: 1000 nM; 72 h

Point of comparison: `O=C1O[C@H]([C@@H](O)CO)C(O)=C1O` [Vitamin C (ascorbate)], cell viability 104%. Against it:
- O=C(O)C[C@@]1(O)C[C@@H](CCCCCCc2ccc(Cl)cc2Cl)OC1=O — lower, 102%
- O=C(NCCCCCCNC(=O)ONC1=CCCCC1)ONC1=CCCCC1 — lower, 101%
- O=C(C1CC1)N1CC[C@@H](C=C2NNC(=O)N2c2ccc(-c3ccc4occc4c3)cc2)C1 — lower, 79%
- CCCCCCCCCCCC(=O)c1c(O)c(C(=O)CCCCCCCCCCC)c(O)c(C2CC(c3ccc(O)cc3)Oc3cc(O)ccc32)c1O (stereo not given) — higher, 117%
- NC(=O)c1cccc(-c2cccc(OC(=O)NC3CCCCC3)c2)c1 [URB-597] — lower, 90.6%

same assay, conditions: 10000 nM; 72 h

Point of comparison: `O=C(C1CC1)N1CC[C@@H](C=C2NNC(=O)N2c2ccc(-c3ccc4occc4c3)cc2)C1`, cell viability 54.4%. Against it:
- O=C(O)C[C@@]1(O)C[C@@H](CCCCCCc2ccc(Cl)cc2Cl)OC1=O — higher, 96.8%
- O=C(NCCCCCCNC(=O)ONC1=CCCCC1)ONC1=CCCCC1 — higher, 89.5%
- CCCCCCCCCCCC(=O)c1c(O)c(C(=O)CCCCCCCCCCC)c(O)c(C2CC(c3ccc(O)cc3)Oc3cc(O)ccc32)c1O (stereo not given) — higher, 108%
- NC(=O)c1cccc(-c2cccc(OC(=O)NC3CCCCC3)c2)c1 [URB-597] — higher, 100%
- O=C1O[C@H]([C@@H](O)CO)C(O)=C1O [Vitamin C (ascorbate)] — higher, 89.4%

tested on: KU-812; assay: as above; conditions: 1 nM; 72 h
Method in brief: as §1

Point of comparison: `CCCCCCCCCCCC(=O)c1c(O)c(C(=O)CCCCCCCCCCC)c(O)c(C2CC(c3ccc(O)cc3)Oc3cc(O)ccc32)c1O` (stereo not given), cell viability 102%. Against it:
- O=C(O)C[C@@]1(O)C[C@@H](CCCCCCc2ccc(Cl)cc2Cl)OC1=O — lower, 92.2%
- O=C(NCCCCCCNC(=O)ONC1=CCCCC1)ONC1=CCCCC1 — higher, 104%
- O=C(C1CC1)N1CC[C@@H](C=C2NNC(=O)N2c2ccc(-c3ccc4occc4c3)cc2)C1 — lower, 99.8%
- NC(=O)c1cccc(-c2cccc(OC(=O)NC3CCCCC3)c2)c1 [URB-597] — lower, 92.1%
- O=C1O[C@H]([C@@H](O)CO)C(O)=C1O [Vitamin C (ascorbate)] — lower, 96.8%

same assay, conditions: 10 nM; 72 h

Point of comparison: `NC(=O)c1cccc(-c2cccc(OC(=O)NC3CCCCC3)c2)c1` [URB-597], cell viability 99.1%. Against it:
- O=C(O)C[C@@]1(O)C[C@@H](CCCCCCc2ccc(Cl)cc2Cl)OC1=O — higher, 99.9%
- O=C(NCCCCCCNC(=O)ONC1=CCCCC1)ONC1=CCCCC1 — higher, 110%
- O=C(C1CC1)N1CC[C@@H](C=C2NNC(=O)N2c2ccc(-c3ccc4occc4c3)cc2)C1 — lower, 94.8%
- CCCCCCCCCCCC(=O)c1c(O)c(C(=O)CCCCCCCCCCC)c(O)c(C2CC(c3ccc(O)cc3)Oc3cc(O)ccc32)c1O (stereo not given) — higher, 104%
- O=C1O[C@H]([C@@H](O)CO)C(O)=C1O [Vitamin C (ascorbate)] — higher, 104%

same assay, conditions: 100 nM; 72 h

Point of comparison: `NC(=O)c1cccc(-c2cccc(OC(=O)NC3CCCCC3)c2)c1` [URB-597], cell viability 103%. Against it:
- O=C(O)C[C@@]1(O)C[C@@H](CCCCCCc2ccc(Cl)cc2Cl)OC1=O — lower, 96%
- O=C(NCCCCCCNC(=O)ONC1=CCCCC1)ONC1=CCCCC1 — higher, 113%
- O=C(C1CC1)N1CC[C@@H](C=C2NNC(=O)N2c2ccc(-c3ccc4occc4c3)cc2)C1 — lower, 99.9%
- CCCCCCCCCCCC(=O)c1c(O)c(C(=O)CCCCCCCCCCC)c(O)c(C2CC(c3ccc(O)cc3)Oc3cc(O)ccc32)c1O (stereo not given) — higher, 110%
- O=C1O[C@H]([C@@H](O)CO)C(O)=C1O [Vitamin C (ascorbate)] — lower, 99.5%

same assay, conditions: 1000 nM; 72 h

Point of comparison: `CCCCCCCCCCCC(=O)c1c(O)c(C(=O)CCCCCCCCCCC)c(O)c(C2CC(c3ccc(O)cc3)Oc3cc(O)ccc32)c1O` (stereo not given), cell viability 102%. Against it:
- O=C(O)C[C@@]1(O)C[C@@H](CCCCCCc2ccc(Cl)cc2Cl)OC1=O — lower, 98.7%
- O=C(NCCCCCCNC(=O)ONC1=CCCCC1)ONC1=CCCCC1 — lower, 101%
- O=C(C1CC1)N1CC[C@@H](C=C2NNC(=O)N2c2ccc(-c3ccc4occc4c3)cc2)C1 — the same, 102%
- NC(=O)c1cccc(-c2cccc(OC(=O)NC3CCCCC3)c2)c1 [URB-597] — higher, 103%
- O=C1O[C@H]([C@@H](O)CO)C(O)=C1O [Vitamin C (ascorbate)] — lower, 95%

same assay, conditions: 10000 nM; 72 h

Point of comparison: `O=C(C1CC1)N1CC[C@@H](C=C2NNC(=O)N2c2ccc(-c3ccc4occc4c3)cc2)C1`, cell viability 67.1%. Against it:
- O=C(O)C[C@@]1(O)C[C@@H](CCCCCCc2ccc(Cl)cc2Cl)OC1=O — higher, 92.4%
- O=C(NCCCCCCNC(=O)ONC1=CCCCC1)ONC1=CCCCC1 — higher, 92.4%
- CCCCCCCCCCCC(=O)c1c(O)c(C(=O)CCCCCCCCCCC)c(O)c(C2CC(c3ccc(O)cc3)Oc3cc(O)ccc32)c1O (stereo not given) — higher, 105%
- NC(=O)c1cccc(-c2cccc(OC(=O)NC3CCCCC3)c2)c1 [URB-597] — higher, 87.2%
- O=C1O[C@H]([C@@H](O)CO)C(O)=C1O [Vitamin C (ascorbate)] — higher, 108%

tested on: KCL-22; assay: as above; conditions: 1 nM; 72 h
Method in brief: as §1

Point of comparison: `O=C1O[C@H]([C@@H](O)CO)C(O)=C1O` [Vitamin C (ascorbate)], cell viability 90.2%. Against it:
- O=C(O)C[C@@]1(O)C[C@@H](CCCCCCc2ccc(Cl)cc2Cl)OC1=O — higher, 97.1%
- O=C(NCCCCCCNC(=O)ONC1=CCCCC1)ONC1=CCCCC1 — higher, 106%
- O=C(C1CC1)N1CC[C@@H](C=C2NNC(=O)N2c2ccc(-c3ccc4occc4c3)cc2)C1 — higher, 99.1%
- CCCCCCCCCCCC(=O)c1c(O)c(C(=O)CCCCCCCCCCC)c(O)c(C2CC(c3ccc(O)cc3)Oc3cc(O)ccc32)c1O (stereo not given) — higher, 107%
- NC(=O)c1cccc(-c2cccc(OC(=O)NC3CCCCC3)c2)c1 [URB-597] — higher, 105%

same assay, conditions: 10 nM; 72 h

Point of comparison: `O=C(O)C[C@@]1(O)C[C@@H](CCCCCCc2ccc(Cl)cc2Cl)OC1=O`, cell viability 107%. Against it:
- O=C(NCCCCCCNC(=O)ONC1=CCCCC1)ONC1=CCCCC1 — lower, 100%
- O=C(C1CC1)N1CC[C@@H](C=C2NNC(=O)N2c2ccc(-c3ccc4occc4c3)cc2)C1 — lower, 101%
